From patent US10881679B2, “Application of a phillyrin/phillygeninin composition in preparing a medicine or health care product for alleviating or/and treating viral diseases, and medicine or health care product for treating viral diseases” (priority 2014, dated 2021)
Marks after values point to notes of the source that are not given here.

Experiments:
[1] = tested on: rat paw swelling induced by carrageenin; assay: Rat paw swelling induced by carrageenin; assay type: in vivo, Wistar rats; conditions: 100 mg/kg
Experimental: Each group has 10 rats. Rats in each group were all administered by […] through the sublingual vein. Normal volume of the right hind paw of each rat in each group was measured in capillary magnification measurement method. In order to avoid errors, the measurement should be carried out in a fixed position and operated by the same person before and after administration. A mean of the two measurement values was taken as the normal volume of the right hind paw of a rat before administration. […] The difference between the groups was compared by inter-group t test processing through the difference percentage (swelling ratio) of the paw volume before and after the induced rat inflammation. [formula] Results

[2] = tested on: sweat secretion of rat paws; assay: Sweat secretion of rat paws (coloring method); assay type: in vivo, Wistar rats; conditions: 35.0 mg/kg s.c.
Excerpt: The test is based on a mechanism that distribution of sweat glands is present in footpads of rat paws, the amount of sweat secretion and variation thereof can be observed by using a mechanism that a purple color can be produced by contacting iodine and starch when encountered with sweat.
500 Wistar rats with equal male and female number were used, weighing of 120˜150 g. These rats were randomly divided into 50 groups by weight and gender, i.e., namely 5 groups for the control groups (0.5% methyl cellulose), 5 groups for phillyrin groups, 5 groups for phillygeninin groups, 5 groups for the low, medium and high dose groups (2.5, 5, 10 mg/kg, respectively) of phillyrin/phillygeninin compositions A and B respactively, and 5 groups for the positive drug pilocarpine groups (35 mg/kg). Each group has 10 rats, 10 groups of rates are used for each test, which has 5 time periods (1, 5, 10, 15 and 20 min). The rats were placed into a self-made rat fixation bag, and both hind limbs of the rats were exposed. Dirt on the right paws was gently cleaned away using cotton swabs containing anhydrous alcohol. Pilocarpine solution was administered by subcutaneous injection, the remaining groups were subjected to intragastric administration. At 1 h (30 min for the pilocarpine group) after administration, pre-existing sweat and sweat generated due to struggle on the right paw of each rat in each group was gently wiped away with dry cotton swabs, then the paws were coated with solution A (dissolving 2 g iodine in 100 ml anhydrous alcohol) of Hetian-gaoyuanshi's reagent. After complete dryness, the paws were thinly coated with solution B (uniform mixture of 50 g soluble starch and 100 ml castor oil) of Hetian-gaoyuanshi's reagent. The color and number of dark purple coloring spots (i.e. sweat spots) were carefully observed at 1, 5, 10, 15 and 20 min after the coating of the solution B respectively with magnifying glass. After the test was completed, statistical treatment was performed according to the rank sum test with two-sample comparison, thereby comparing the differences among the various groups.

[3] = tested on: sweat gland epithelial cells of rat paws; assay: Sweat secretion of rat paws (histomorphological observation method); assay type: in vivo, Wistar rats; conditions: 35.0 mg/kg s.c., 30 min after administration
Excerpt: This test is based on a mechanism that when a rat is in an excited state, in addition to the increase of sweat secretion of sweat glands, the morphology of sweat gland epithelial cells changes accordingly. Under an optical microscope, it can be seen that the sweat gland epithelial cell vacuoles increase in number and expand. Under an electron microscope, such expanded vacuoles appear to be mitochondria in the sweat gland epithelial cell swelling, breakage and fusion and expansion of secretory vesicle. Therefore, through histomorphological observation of sweat gland epithelial tissue of a rat paw, secretory activities of the sweat gland can be known.
300 Wistar rats with equal male and female number, weighing 120˜160 g were used. These rats were randomly divided into 30 groups by weight and gender: control groups (0.5% of methyl cellulose), phillygeninin groups, phillyrin groups, low, medium and high dose groups (2.5, 5, 10 mg/kg) of phillyrin/phillygeninin compositions A and B separately, and positive drug pilocarpine groups (35 mg/kg). Each group has 10 rats, the test is repeated 3 times for each group. Pilocarpine solution was administered by subcutaneous injection, the remaining groups were subjected to intragastric administration. After administration of the 0.5% of methyl cellulose in the control group for one hour, after administration of the pilocarpine in the positive drug group for 30 min, and after administration of the phillyrin, the phillygeninin and the phillyrin/phillygeninin composition for one hour, the right hind limb was instantly cut off at the ankle joint to immediately take down the footpad of the right hind limb and placed into 10% of formaldehyde solution. The footpads were fixed, dehydrated, embedded, sliced and stained with HE by using conventional methods. Changes in sweat gland epithelial cells of the rat paws from each group were observed under an optical microscope, to mainly observe the percentage of vacuolization. The differences among the various groups was performed through X^2 test for statistical analysis. The above test was repeated 3 times. Percentage of vacuolization=(the number of vacuolized sweat glands)/(the number of sweat glands observed)×100%.

[4] = tested on: Coxsackie virus B3 (CVB3); assay: Impact on virus-induced cytopathic effect in Vero cells (MTT): CVB3; assay type: cell-based; conditions: CVB3 100TCID50, Vero, 72 h; drug g/L as Table 1-2
[5] = tested on: influenza virus; assay type: in vivo, Kunming mice; conditions: 58.5 mg/kg/d i.g. 5 days
[6] = tested on: Coxsackievirus A16 (CoxA16); assay: Impact on virus-induced cytopathic effect in Vero cells (MTT): CoxA16; assay type: cell-based; conditions: CoxA16 100TCID50, Vero, 72 h; drug g/L as Table 1-2
[7] = tested on: parainfluenza virus; assay type: in vivo, Kunming mice; conditions: 58.5 mg/kg/d i.g. 5 days
[8] = tested on: parainfluenza virus; assay: Impact on virus-induced cytopathic effect in Vero cells (MTT): parainfluenza virus; assay type: cell-based; conditions: parainfluenza virus 100TCID50, Vero, 72 h; drug g/L as Table 1-2
[9] = tested on: influenza virus; assay: Impact on virus-induced cytopathic effect in Vero cells (MTT): influenza virus; assay type: cell-based; conditions: influenza virus 100TCID50, Vero, 72 h; drug g/L (Table 1-2): phillyrin 0.01, Phillygeninin 0.02, compositions A, B 0.01, Ribavirin 0.70, oseltamivir phosphate 0.30
[10] = tested on: adenovirus (ADV); assay: Impact on virus-induced cytopathic effect in Vero cells (MTT): ADV; assay type: cell-based; conditions: ADV 100TCID50, Vero, 72 h; drug g/L as Table 1-2
[11] = tested on: respiratory syncytial virus (RSV); assay: Impact on virus-induced cytopathic effect in Vero cells (MTT): RSV; assay type: cell-based; conditions: RSV 100TCID50, Vero, 72 h; drug g/L as Table 1-2
[12] = tested on: Herpes zoster simplex viruses type I (HSV-I); assay: Impact on virus-induced cytopathic effect in Vero cells (MTT): HSV-I; assay type: cell-based; conditions: HSV-I 100TCID50, Vero, 72 h; drug g/L as Table 1-2
[13] = tested on: enterovirus EV71; assay: Impact on virus-induced cytopathic effect in Vero cells (MTT): EV71; assay type: cell-based; conditions: EV71 100TCID50, Vero, 72 h; drug g/L as Table 1-2
[14] = tested on: rabbit fever induced by typhoid and paratyphoid vaccine; assay: Rabbit fever induced by typhoid and paratyphoid vaccine; assay type: in vivo, Japanese big-ear white rabbits; conditions: 50 mg/kg i.g.
Experimental: Male Japanese big-ear white rabbits with a weight 1.5˜2.0 kg were used. Before the test, WSC-411P portable digital thermometer was used to measure the normal rectal temperature twice (with certain interval for each time), and the average value was taken as the normal body temperature of rabbits. […] Each group has 6 rabbits, and the test was repeated 3 times for each group. Rabbits were fixed into a fixator. The blank control group was intravenously injected with normal saline of 1 ml/kg via the ear margin; The model control group and each drug group were intravenously injected with typhoid and paratyphoid vaccines of 0.8 ml/kg via the ear margin. After the body temperatures of the rabbits increased by 1° C. or more (requiring about 1˜1.5 h, and this test was limited to 1 h), the blank control group and the model group were administered intragastrically with 0.5% carboxymethycellulose of 1 ml/kg, and the drug groups were administered intragastrically with phillyrin/phillygeninin compositions and paracetamol respectively. The rectal temperature was measured after administration for 30, 60, 90, 120, 180 and 240 min to observe the changes in the body temperature, and difference between the groups was compared by inter-group t test processing through antipyretic percentage.

[15] = tested on: rat fever induced by beer yeast; assay: Rat fever induced by beer yeast (Saccharomyces cerevisiae); assay type: in vivo, Wistar rats; conditions: 100 mg/kg i.g.
Experimental: Male Wistar rats with a weight of 180˜200 g were used. Normal anal temperature of each rat was measured twice (at a certain interval) with a WSC-411P portable digital thermometer, and a mean of the two measurement values was taken as a normal body temperature of the rat. Then, 300 rats with body temperature at 36.5˜38° C. were selected and randomly divided into 30 groups by weight: model groups (0.5% methyl cellulose), phillyrin/phillygeninin compositions A and B that are divided into low, medium and high dose groups (2.5, 5, 10 mg/kg) respectively, phillyrin groups (13 mg/kg), phillygeninin groups (13 mg/kg), and positive drug paracetamol groups (100 mg/kg). Each group has 10 rates, and the test is repeated 3 times for each group. 10 mL/kg of 10% fresh Saccharomyces cerevisiae suspension was subcutaneously injected to the back of the rats of each group to induce fever. After administration of 10% fresh Saccharomyces cerevisiae suspension for 6.0 h, the phillyrin/phillygeninin composition and the paracetamol positive drug were administered by intragastric administration, and the same volume of 0.5% methyl cellulose is administrated to the model group by intragastric administration. Rectal temperatures were respectively measured at 1, 2, 3 and 4 h after the administration. Changes in the body temperature were observed and difference between the groups was compared by inter-group t test processing through antipyretic percentage. The above test was repeated totally 3 times.

[16] = 10 min after coating solution B
[17] = 15 min after coating solution B
[18] = 20 min after coating solution B

Compound: CC(=O)Oc1ccccc1C(=O)O [Aspirin]
- Swelling percentage (%) ([1]; 15 min after inflammation induction): 8.90 ± 6.70 %
- Swelling percentage (%) ([1]; 30 min after inflammation induction): 15.6 ± 12.2 %
- Swelling percentage (%) ([1]; 60 min after inflammation induction): 20.3 ± 10.9 %
- Swelling percentage (%) ([1]; 120 min after inflammation induction): 21.6 ± 12.1 %
- Swelling percentage (%) ([1]; 180 min after inflammation induction): 26.1 ± 21.1 %
- Swelling percentage (%) ([1]; 240 min after inflammation induction): 26.1 ± 16.3 %
- Swelling percentage (%) ([1]; 300 min after inflammation induction): 34.9 ± 14.6 %
- Swelling percentage (%) ([1]; 360 min after inflammation induction): 31.9 ± 12.2 %

Compound: CC[C@@H]1C(=O)OC[C@@H]1Cc1cncn1C [Pilocarpine]
- Animal number of sweat spots of level + ([2]; 1 min after coating solution B): 1 rats
- Animal number of sweat spots of level ++ ([2]; 1 min after coating solution B): 3 rats
- Animal number of sweat spots of level +++ ([2]; 1 min after coating solution B): 1 rats
- Animal number of sweat spots of level ++++ ([2]; 1 min after coating solution B): 5 rats
- Animal number of sweat spots of level − ([2]; 1 min after coating solution B): 0 rats
- Animal number of sweat spots of level + ([2]; 5 min after coating solution B): 1 rats
- Animal number of sweat spots of level ++ ([2]; 5 min after coating solution B): 2 rats
- Animal number of sweat spots of level +++ ([2]; 5 min after coating solution B): 1 rats
- Animal number of sweat spots of level ++++ ([2]; 5 min after coating solution B): 6 rats
- Animal number of sweat spots of level − ([2]; 5 min after coating solution B): 0 rats
- Animal number of sweat spots of level + [2, 16]: 0 rats
- Animal number of sweat spots of level ++ [2, 16]: 2 rats
- Animal number of sweat spots of level +++ [2, 16]: 1 rats
- Animal number of sweat spots of level ++++ [2, 16]: 6 rats
- Animal number of sweat spots of level − [2, 16]: 0 rats
- Animal number of sweat spots of level + [2, 17]: 0 rats
- Animal number of sweat spots of level ++ [2, 17]: 2 rats
- Animal number of sweat spots of level +++ [2, 17]: 1 rats
- Animal number of sweat spots of level ++++ [2, 17]: 6 rats
- Animal number of sweat spots of level − [2, 17]: 0 rats
- Animal number of sweat spots of level + [2, 18]: 0 rats
- Animal number of sweat spots of level ++ [2, 18]: 2 rats
- Animal number of sweat spots of level +++ [2, 18]: 1 rats
- Animal number of sweat spots of level ++++ [2, 18]: 6 rats
- Animal number of sweat spots of level − [2, 18]: 0 rats
- Number of sweat glands of vacuole [3]: 57
- percentage of vacuolization (%) [3]: 27.40*** %

Compound: NC(=O)c1ncn([C@@H]2O[C@H](CO)[C@@H](O)[C@H]2O)n1 [Ribavirin]
- antiviral effective rate (ER %) [4]: 13.44%
- Hemagglutination titer (InX) [5]: 21.91 ± 1.050
- Inhibition rate (%) of hemagglutination titer [5]: 32.39%
- antiviral effective rate (ER %) [6]: 0.70%
- Hemagglutination titer (InX) [7]: 23.22
- Inhibition rate (%) of hemagglutination titer [7]: 29.86%
- antiviral effective rate (ER %) [8]: 91.56** %
- antiviral effective rate (ER %) [9]: 57.49** %
- antiviral effective rate (ER %) [10]: 0.43%
- antiviral effective rate (ER %) [11]: 50.08* %
- antiviral effective rate (ER %) [12]: 62.92** %
- antiviral effective rate (ER %) [13]: 4.25%

Compound: CC(=O)Nc1ccc(O)cc1 [Paracetamol]
- Body temperature ([14]; 30 min after administration): 40.53 ± 0.65 °C
- antipyretic percentage (%) ([14]; 30 min after administration): −1.14 ± 0.56%
- Body temperature ([14]; 60 min after administration): 40.10 ± 0.49 °C
- antipyretic percentage (%) ([14]; 60 min after administration): −2.18 ± 0.17%
- Body temperature ([14]; 90 min after administration): 39.83 ± 0.58 °C
- antipyretic percentage (%) ([14]; 90 min after administration): −2.83 ± 0.15%
- Body temperature ([14]; 120 min after administration): 39.72 ± 0.56 °C
- antipyretic percentage (%) ([14]; 120 min after administration): −3.11 ± 0.20%
- Body temperature ([14]; 180 min after administration): 39.61 ± 0.41 °C
- antipyretic percentage (%) ([14]; 180 min after administration): −3.38 ± 0.22%
- Body temperature ([14]; 240 min after administration): 39.53 ± 0.47 °C
- antipyretic percentage (%) ([14]; 240 min after administration): −3.58 ± 0.38%
- Body temperature ([15]; 1 h after administration): 38.66 ± 0.59 °C
- antipyretic percentage (%) ([15]; 1 h after administration): −2.07 ± 0.54 %
- Body temperature ([15]; 2 h after administration): 38.19 ± 0.59 °C
- antipyretic percentage (%) ([15]; 2 h after administration): −3.27 ± 0.77 %
- Body temperature ([15]; 3 h after administration): 37.98 ± 0.19 °C
- antipyretic percentage (%) ([15]; 3 h after administration): −3.80 ± 1.43 %
- Body temperature ([15]; 4 h after administration): 37.84 ± 0.32 °C
- antipyretic percentage (%) ([15]; 4 h after administration): −4.15 ± 1.59 %
